Assay [1] concerns the target T1, caALK1 (Homo sapiens, UniProt P37023, Q201D).
T1 construct: expressed in transfected cells; host or cells: C2C12 BRE-Luc cells infected with adenovirus (MOI 100)
Kind of assay: Luciferase reporter assay constitutively active ALK1. The conditions noted are these: read-out: Cell Based Assay caALK1 IC50. Here is the method: The cells were incubated for 1 h (37° C. and 10% CO2) and allowed to settle and attach. Compounds of interest or DMSO were diluted in DMEM and added at final compound concentrations of 1 nM to 10 μM. Cells were then incubated for 30 min. Adenovirus expressing constitutively active BMP and TGF-β type I receptors (Ad.caALK1-5), generously provided by Dr. Akiko Hata (University of to California at San Francisco), were added to achieve a multiplicity of infection (MOI) of 100. Plates were incubated overnight at 37° C. Cell viability was assayed with an MIT (3-(4,5-dimethylthiazol-2-yl)-2,5-diphenyl tetrazolium bromide) colorimetric assay (Promega) per the manufacturer's instructions. Media was discarded, and firefly luciferase activity was measured (Promega) according to manufacturer's protocol. Light output was measured using a Spectramax L luminometer (Molecular Devices) with an integration time of one second per well. Data was normalized to 100% of incremental BRE-Luc activity due to adenoviruses specifying caALK1, 2, or 3, or the incremental CAGA-Luc activity due to adenoviruses specifying caALK4 or 5.

Assay [2] deals with CK1-γ2 (Homo sapiens, UniProt P78368). Kind of assay: Kinome profiling CK1-γ2. The class given is biochemical. The following applies: read-out: Inhibitory activity CK1-γ2; for inhibition at 0.1 µM: 100 nM. The method, then: (§1) . The kinome-wide selectivity was determined following the methods previously reported by Mohedas et al., ACS Chem Biol 2013, 8, 1291-1302 and Sanvitale et al., PLoS One 2013, 8, e62721.

The target in assay [3] is ALK2 (Homo sapiens, UniProt Q04771). Kind of assay: Kinome profiling ALK2. Type of assay: biochemical. The conditions noted are these: Table 4, read-out: Inhibitory Activity ALK2. The method, then:
as §1

Assay [4] has as its target MAP4K5 (Homo sapiens, UniProt Q9Y4K4). As to the kind of experiment: Kinome profiling MAP4K5. The class given is biochemical. The following applies: Table 4, read-out: Inhibitory Activity MAP4K5. Here is the method: as §1
The target in assay [5] is ALK6 (Homo sapiens, UniProt O00238). Kind of assay: Kinome profiling ALK6. The class given is biochemical. The conditions noted are these: Table 4, read-out: Inhibitory Activity ALK6. The method, then: as §1
The target of assay [6] is TNIK (Homo sapiens, UniProt Q9UKE5). Kind of assay: Kinome profiling TNIK. The class given is biochemical. The following applies: Table 4, read-out: Inhibitory Activity TNIK. The method, then:
as §1

In assay [7] the test system is BMP6. Kind of assay: Ligand induced transcriptional activity assay BMP6 (BRE-Luc). The class given is cell-based.
Assay [8] deals with RIPK2 (Homo sapiens, UniProt O43353). Kind of assay: Kinome profiling RIPK2. Type of assay: biochemical. The conditions noted are these: Table 4, read-out: Inhibitory Activity RIPK2. The method, then: as §1

Molecules are shown by their SMILES. Like-named read-outs stand apart in the source and are kept apart here.

CK1-γ2, sequence (P78368 whole entry): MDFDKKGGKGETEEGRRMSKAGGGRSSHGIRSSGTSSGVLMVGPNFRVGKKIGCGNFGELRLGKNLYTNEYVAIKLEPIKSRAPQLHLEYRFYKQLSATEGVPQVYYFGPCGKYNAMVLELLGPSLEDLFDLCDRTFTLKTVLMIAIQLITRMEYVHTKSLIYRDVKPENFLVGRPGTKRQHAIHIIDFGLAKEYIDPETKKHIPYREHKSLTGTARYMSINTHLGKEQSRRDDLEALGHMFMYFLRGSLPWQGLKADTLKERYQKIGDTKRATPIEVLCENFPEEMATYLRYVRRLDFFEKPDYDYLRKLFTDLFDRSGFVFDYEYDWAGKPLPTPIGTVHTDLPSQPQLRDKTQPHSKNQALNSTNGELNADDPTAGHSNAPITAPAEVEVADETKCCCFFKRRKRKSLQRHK
RIPK2, sequence (O43353 whole entry): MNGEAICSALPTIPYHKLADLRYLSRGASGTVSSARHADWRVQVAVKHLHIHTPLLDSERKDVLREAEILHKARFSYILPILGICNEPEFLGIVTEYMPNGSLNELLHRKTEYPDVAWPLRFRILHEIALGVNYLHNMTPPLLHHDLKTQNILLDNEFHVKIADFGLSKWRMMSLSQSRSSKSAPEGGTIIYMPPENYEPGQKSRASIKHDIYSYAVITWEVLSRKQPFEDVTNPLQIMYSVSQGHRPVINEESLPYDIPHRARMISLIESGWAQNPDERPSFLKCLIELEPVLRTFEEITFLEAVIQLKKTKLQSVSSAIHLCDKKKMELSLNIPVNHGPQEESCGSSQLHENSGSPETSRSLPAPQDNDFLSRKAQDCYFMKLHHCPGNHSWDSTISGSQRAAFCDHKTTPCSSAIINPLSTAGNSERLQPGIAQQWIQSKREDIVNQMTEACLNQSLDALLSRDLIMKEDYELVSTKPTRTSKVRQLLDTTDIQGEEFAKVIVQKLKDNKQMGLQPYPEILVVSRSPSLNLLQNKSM
ALK2, sequence (Q04771 21-509): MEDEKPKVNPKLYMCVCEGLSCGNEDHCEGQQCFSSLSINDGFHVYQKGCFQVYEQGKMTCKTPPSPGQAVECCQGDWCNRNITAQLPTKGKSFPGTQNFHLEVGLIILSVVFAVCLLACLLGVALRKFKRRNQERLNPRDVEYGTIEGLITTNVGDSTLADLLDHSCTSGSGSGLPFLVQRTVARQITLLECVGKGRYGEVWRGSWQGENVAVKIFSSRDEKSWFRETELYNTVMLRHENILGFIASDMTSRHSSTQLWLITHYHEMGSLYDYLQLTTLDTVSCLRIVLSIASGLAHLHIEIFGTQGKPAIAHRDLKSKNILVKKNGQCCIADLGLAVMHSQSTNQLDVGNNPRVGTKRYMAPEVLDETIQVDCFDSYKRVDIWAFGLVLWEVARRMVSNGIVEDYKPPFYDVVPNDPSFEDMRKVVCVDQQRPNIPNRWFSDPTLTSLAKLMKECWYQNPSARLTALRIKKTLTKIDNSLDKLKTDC
ALK6, sequence (O00238 14-502): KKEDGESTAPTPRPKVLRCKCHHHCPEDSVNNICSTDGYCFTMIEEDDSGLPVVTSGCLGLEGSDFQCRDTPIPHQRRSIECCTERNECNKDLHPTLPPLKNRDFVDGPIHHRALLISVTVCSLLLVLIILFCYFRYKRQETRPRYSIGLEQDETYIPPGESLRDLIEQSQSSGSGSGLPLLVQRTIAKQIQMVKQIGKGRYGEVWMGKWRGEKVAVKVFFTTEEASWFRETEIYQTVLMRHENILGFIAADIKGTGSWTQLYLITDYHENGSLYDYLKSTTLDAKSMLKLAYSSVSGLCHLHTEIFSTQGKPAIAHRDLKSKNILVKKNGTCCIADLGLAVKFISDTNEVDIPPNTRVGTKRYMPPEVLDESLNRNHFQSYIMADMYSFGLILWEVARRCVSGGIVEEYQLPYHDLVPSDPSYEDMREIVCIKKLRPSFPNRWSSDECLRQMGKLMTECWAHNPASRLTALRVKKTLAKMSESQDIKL
TNIK, sequence (Q9UKE5 whole entry): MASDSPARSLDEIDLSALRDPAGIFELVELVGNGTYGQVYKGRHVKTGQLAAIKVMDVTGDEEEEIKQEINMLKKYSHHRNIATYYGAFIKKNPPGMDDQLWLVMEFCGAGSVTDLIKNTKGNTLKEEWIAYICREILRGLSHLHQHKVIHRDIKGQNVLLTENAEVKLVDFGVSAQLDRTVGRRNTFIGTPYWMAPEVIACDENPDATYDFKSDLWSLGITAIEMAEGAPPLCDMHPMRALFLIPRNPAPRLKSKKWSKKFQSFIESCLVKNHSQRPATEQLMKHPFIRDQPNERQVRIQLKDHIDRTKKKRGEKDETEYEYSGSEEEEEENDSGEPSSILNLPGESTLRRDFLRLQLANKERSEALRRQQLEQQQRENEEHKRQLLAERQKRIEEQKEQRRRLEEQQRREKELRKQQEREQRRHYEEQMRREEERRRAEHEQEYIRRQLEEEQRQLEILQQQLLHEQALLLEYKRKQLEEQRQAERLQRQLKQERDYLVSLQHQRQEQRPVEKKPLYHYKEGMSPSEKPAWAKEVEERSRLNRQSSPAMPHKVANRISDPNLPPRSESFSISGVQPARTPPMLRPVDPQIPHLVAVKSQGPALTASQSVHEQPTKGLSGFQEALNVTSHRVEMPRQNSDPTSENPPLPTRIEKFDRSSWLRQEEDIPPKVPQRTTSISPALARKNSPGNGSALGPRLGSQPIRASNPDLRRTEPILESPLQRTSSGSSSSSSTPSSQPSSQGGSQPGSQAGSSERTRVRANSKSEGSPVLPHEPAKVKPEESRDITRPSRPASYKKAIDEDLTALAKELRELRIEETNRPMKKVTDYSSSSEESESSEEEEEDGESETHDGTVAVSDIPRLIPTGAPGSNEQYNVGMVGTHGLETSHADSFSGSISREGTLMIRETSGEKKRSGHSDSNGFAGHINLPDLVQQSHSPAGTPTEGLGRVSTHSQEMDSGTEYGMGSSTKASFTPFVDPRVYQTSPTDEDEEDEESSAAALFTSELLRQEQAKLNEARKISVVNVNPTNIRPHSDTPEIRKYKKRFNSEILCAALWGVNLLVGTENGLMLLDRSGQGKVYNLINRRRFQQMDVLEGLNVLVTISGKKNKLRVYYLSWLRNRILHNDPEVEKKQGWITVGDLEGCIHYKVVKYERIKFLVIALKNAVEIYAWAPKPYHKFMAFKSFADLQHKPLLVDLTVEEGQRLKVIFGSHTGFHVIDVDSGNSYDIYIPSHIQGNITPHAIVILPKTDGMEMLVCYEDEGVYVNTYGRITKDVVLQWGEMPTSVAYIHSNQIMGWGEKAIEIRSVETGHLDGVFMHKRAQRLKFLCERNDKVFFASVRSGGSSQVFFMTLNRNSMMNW
MAP4K5, sequence (Q9Y4K4 whole entry): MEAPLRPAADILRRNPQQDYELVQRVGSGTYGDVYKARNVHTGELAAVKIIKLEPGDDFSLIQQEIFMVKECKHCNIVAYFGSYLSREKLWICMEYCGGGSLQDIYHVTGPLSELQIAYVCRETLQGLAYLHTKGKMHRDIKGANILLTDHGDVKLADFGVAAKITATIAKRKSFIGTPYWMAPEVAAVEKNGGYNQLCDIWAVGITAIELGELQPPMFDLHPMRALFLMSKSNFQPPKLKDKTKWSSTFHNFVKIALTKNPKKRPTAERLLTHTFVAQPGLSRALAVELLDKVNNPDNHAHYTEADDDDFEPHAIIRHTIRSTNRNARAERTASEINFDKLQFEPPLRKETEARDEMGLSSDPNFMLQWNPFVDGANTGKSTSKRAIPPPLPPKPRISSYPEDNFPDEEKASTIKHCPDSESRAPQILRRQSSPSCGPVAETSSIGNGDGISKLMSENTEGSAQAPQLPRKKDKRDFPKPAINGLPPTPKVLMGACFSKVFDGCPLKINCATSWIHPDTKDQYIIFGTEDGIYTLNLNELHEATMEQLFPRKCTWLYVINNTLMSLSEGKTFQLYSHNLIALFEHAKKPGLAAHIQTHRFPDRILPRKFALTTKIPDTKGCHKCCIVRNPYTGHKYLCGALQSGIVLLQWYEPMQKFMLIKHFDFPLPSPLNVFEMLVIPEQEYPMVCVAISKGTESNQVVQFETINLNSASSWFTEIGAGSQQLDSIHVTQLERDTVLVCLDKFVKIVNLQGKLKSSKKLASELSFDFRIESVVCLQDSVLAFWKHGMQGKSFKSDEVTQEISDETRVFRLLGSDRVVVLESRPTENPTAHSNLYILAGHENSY
T1 sequence (P37023 22-503 Q201D): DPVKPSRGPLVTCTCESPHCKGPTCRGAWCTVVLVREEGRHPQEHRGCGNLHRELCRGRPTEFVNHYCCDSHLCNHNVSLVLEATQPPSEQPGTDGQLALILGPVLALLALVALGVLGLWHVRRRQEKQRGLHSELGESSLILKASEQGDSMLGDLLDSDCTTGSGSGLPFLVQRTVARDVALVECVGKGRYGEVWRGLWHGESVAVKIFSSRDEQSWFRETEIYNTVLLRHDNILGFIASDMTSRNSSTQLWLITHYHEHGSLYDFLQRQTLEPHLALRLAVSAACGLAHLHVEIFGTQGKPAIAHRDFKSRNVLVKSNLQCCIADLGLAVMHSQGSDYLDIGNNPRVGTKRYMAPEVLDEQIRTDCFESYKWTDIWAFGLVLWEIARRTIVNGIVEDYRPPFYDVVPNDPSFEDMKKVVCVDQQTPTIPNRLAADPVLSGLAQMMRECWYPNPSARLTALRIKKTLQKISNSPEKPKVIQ

As a reminder, the IC50 is the concentration that inhibits the measured activity by half. Consider `COc1cc(-c2cc(-c3ccc(N4CCNCC4)cc3)cnc2N)cc(OC)c1OC` [Compound 15, 5-(4-(piperazin-1-yl)phenyl)-3-(3,4,5-trimethoxyphenyl)pyridin-2-amine], for which the half-inhibitory concentration (IC50) in assay [1] came out at 24 nM. Also, in assay [2], the inhibition at 0.1 µM was found to be 3% and the inhibition at 1 µM stood at 12%.
Consider `COc1cc(-c2cc(-c3ccc(N4CCNCC4)cc3)cnc2C)cc(OC)c1OC` [Compound 10, 1-(4-(6-methyl-5-(3,4,5-trimethoxyphenyl)pyridin-3-yl)phenyl)piperazine], for which the inhibition at 0.1 µM in assay [3] (100 nM) amounted to 67%; in assay [4] (100 nM), 43%; in assay [5] (100 nM), 11%; in assay [6] (100 nM), 71%; in assay [2] it was 1%; in assay [8] (100 nM), 71%. In addition, the inhibition at 1 µM in assay [3] (1 μM) was 99%; in assay [4] (1 μM), 86%; in assay [5] (1 μM), 60%; in assay [6] (1 μM), 98%; in assay [2], 4%; in assay [8] (1 μM), 97%. Also, the IC50 in assay [7] (Table 7, read-out: Ligand Induced BMP6 IC50) was 67 nM; in assay [7] (cell-based signaling inhibition, read-out: BMP6 IC50), 100 ± 1 nM.

The record behind these values is US20170190705A1, “Compositions and Methods for Inhibiting BMP” (THE BRIGHAM AND WOMAN'S HOSPITAL, INC., priority 2014, published 2017).
